Reference: ChEMBL document CHEMBL1201862, “PubChem BioAssay data set” (2004)
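These data come from cells grown in 96-well plates and exposed to compound for 48 hours at five concentrations. GI50 marks 50% less growth.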 The source made the active and inactive calls. Cut-off read from the data, not from the text of the source: active = GI50 up to about 1.1 µM and inactive = higher.

Legend:
Assay in all cases: NCI tumour cell line growth inhibition, 48 h
A498 = tested on: A498
CAKI-1 = tested on: CAKI-1
CCRF-CEM = tested on: CCRF-CEM
DU-145 = tested on: DU-145
HL-60 = tested on: HL-60
HOP-62 = tested on: HOP-62
HOP-92 = tested on: HOP-92
Hs-578T = tested on: Hs-578T
MDA-MB-435 = tested on: MDA-MB-435
MDA-N = tested on: MDA-N
MOLT-4 = tested on: MOLT-4
NCI-H226 = tested on: NCI-H226
OVCAR-3 = tested on: OVCAR-3
OVCAR-8 = tested on: OVCAR-8
SF-268 = tested on: SF-268
SK-OV-3 = tested on: SK-OV-3
SR = tested on: SR
SW-620 = tested on: SW-620
T47D = tested on: T47D
UACC-257 = tested on: UACC-257

Measured: GI50

Oc1ccc(Cl)cc1Cc1cc(Cl)cc(Cc2cc(Cl)ccc2O)c1O
inactive: A498 1.46 µM | CAKI-1 2.48 µM | CCRF-CEM 1.47 µM | DU-145 2.96 µM | HL-60 2.3 µM | HOP-62 2.5 µM | HOP-92 1.26 µM | Hs-578T 1.88 µM | MDA-MB-435 2.82 µM | MDA-N 2.66 µM | MOLT-4 2.34 µM | NCI-H226 2.74 µM | OVCAR-3 2.24 µM | OVCAR-8 3.43 µM | SF-268 2.69 µM | SK-OV-3 2.43 µM | SR 2.82 µM | SW-620 3.29 µM | T47D 2.07 µM | UACC-257 2.01 µM

CNC1=C(C)C(=O)C(O)=C([C@H](C)CCC=C(C)C)C1=O
inactive: A498 19.5 µM | CAKI-1 11.6 µM | CCRF-CEM 3.95 µM | DU-145 30.6 µM | HL-60 2.4 µM | HOP-62 12.8 µM | HOP-92 33.1 µM | Hs-578T 28.3 µM | MDA-MB-435 29.6 µM | MDA-N 29.6 µM | MOLT-4 6.18 µM | NCI-H226 22.1 µM | OVCAR-3 11.7 µM | OVCAR-8 10.7 µM | SF-268 19.1 µM | SK-OV-3 23.9 µM | SR 7.38 µM | SW-620 23.9 µM | T47D 25.4 µM | UACC-257 32.7 µM

CC(C)OP(=O)(OC(C)C)/C(C#N)=C/c1c[nH]c2ccccc12
inactive: A498 > 100 µM | CAKI-1 > 100 µM | CCRF-CEM 35.6 µM | DU-145 > 100 µM | HL-60 19.1 µM | HOP-62 > 100 µM | HOP-92 36.8 µM | Hs-578T > 100 µM | MDA-MB-435 65.5 µM | MDA-N > 100 µM | MOLT-4 88.3 µM | NCI-H226 94 µM | OVCAR-3 34 µM | OVCAR-8 54.6 µM | SF-268 > 100 µM | SK-OV-3 92 µM | SR 68.1 µM | SW-620 > 100 µM | T47D 49.8 µM | UACC-257 54.3 µM
